According to US12162858B2, “Quinoline derivatives as inhibitors of AXL/MER RTK and CSF1R” (QURIENT CO., LTD., priority 2018, dated 2024):

The molecules below were run against T1, Axl (Homo sapiens, UniProt P30530) (assay: Cellular Axl inhibition ELISA (p-Axl, Gas6-induced) using H1299 cells). Details: read-out: Cellular Axl activity by H1299 Elisa (IC50).
T1 sequence (P30530 26-894): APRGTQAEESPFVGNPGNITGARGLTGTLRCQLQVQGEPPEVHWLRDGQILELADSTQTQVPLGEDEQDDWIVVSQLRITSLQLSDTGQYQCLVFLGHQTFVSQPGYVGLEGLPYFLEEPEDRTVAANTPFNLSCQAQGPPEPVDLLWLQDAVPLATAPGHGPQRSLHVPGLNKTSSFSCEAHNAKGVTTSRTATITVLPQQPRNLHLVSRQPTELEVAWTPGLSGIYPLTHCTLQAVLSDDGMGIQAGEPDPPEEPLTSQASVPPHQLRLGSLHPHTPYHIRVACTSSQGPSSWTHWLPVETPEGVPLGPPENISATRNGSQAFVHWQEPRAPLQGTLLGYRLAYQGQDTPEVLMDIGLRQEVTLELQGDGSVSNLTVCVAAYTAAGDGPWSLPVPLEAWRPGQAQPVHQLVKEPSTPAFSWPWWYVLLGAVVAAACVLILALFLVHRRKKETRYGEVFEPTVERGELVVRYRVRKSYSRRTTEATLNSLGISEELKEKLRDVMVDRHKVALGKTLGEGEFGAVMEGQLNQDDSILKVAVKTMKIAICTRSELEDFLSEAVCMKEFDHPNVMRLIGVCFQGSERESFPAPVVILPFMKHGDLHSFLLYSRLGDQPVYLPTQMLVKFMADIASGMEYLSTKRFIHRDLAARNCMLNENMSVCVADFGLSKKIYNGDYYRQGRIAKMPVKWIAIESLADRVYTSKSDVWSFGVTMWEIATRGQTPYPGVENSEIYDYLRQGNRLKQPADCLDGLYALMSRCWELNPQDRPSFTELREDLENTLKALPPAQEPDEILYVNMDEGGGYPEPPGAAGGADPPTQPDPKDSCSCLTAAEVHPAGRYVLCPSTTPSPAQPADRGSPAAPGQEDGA
Type: cell-based
Set-up: especially H1299 cell endogenously expresses Axl; endogenous in cells; host or cells: H1299
Outline: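 H1299 cells, seeded overnight, exposed 24 h at 37 °C to 10-point 3-fold compound dilutions, then stimulated with 200 ng/ml human Gas6 (final) for 1 h. Lysates assayed for p-Axl by sandwich ELISA with HRP/TMB, absorbance 450 nm; IC50 by sigmoidal dose-response fit.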

| Structure (SMILES) | IC50 |
| --- | --- |
| CCCn1cc(OCCN(C)C)c(C(=O)Nc2ccc(Oc3ccnc4cc(OC)c(OC)cc34)cn2)n1 [Compound 177] | < 500 nM |
| COc1cc2nccc(Oc3ccc(NC(=O)c4nn(CCO)cc4OCC(F)(F)F)cc3C)c2cc1OC [Compound 56] | ≥ 1000 nM |
| COc1cc2nccc(Oc3ccc(NC(=O)c4nn(C5CCCC5)cc4OCC(F)(F)F)c(F)c3)c2cc1OC [Compound 47] | < 500 nM |
| CCCn1cc(OCCC(O)CO)c(C(=O)Nc2ccc(Oc3ccnc4cc(OC)c(OC)cc34)cn2)n1 (stereo not shown) [Compound 15] | ≥ 1000 nM |
| COc1cc2nccc(Oc3ccc(NC(=O)c4nn(C5CCOC5)cc4OCC(F)(F)F)cc3)c2cc1OC (stereo not shown) [Compound 62] | < 500 nM |
| COc1cc2nccc(Oc3ccc(NC(=O)c4nn(C5CC5)cc4OCC4CNC4)nn3)c2cc1OC [Compound 172] | ≥ 1000 nM |
| COCCOc1cn(C2CC2)nc1C(=O)Nc1ccc(Oc2ccnc3cc(OC)c(OC)cc23)nn1 [Compound 171] | < 500 nM |
| COc1cc2nccc(Oc3ccc(NC(=O)c4nn(C5CCCC5)cc4OCC(F)(F)F)cc3)c2cc1OC [Compound 60] | < 500 nM |
| COc1cc2nccc(Oc3ccc(NC(=O)c4nn(CC(C)C)cc4OCC(F)(F)F)cc3F)c2cc1OC [Compound 53] | < 500 nM |
| CCCn1cc(N(C)CC2CCOCC2)c(C(=O)Nc2ccc(Oc3ccnc4cc(OC)c(OC)cc34)cn2)n1 [Compound 34] | ≥ 1000 nM |
| CCCn1cc(OCC2CCC2)c(C(=O)Nc2ccc(Oc3ccnc4cc(OC)c(OC(F)(F)F)cc34)cn2)n1 [Compound 167] | < 500 nM |
| COc1cc2nccc(Oc3ccc(NC(=O)c4nn(CC(C)O)cc4OCC4CN(C)C4)nc3)c2cc1OC (stereo not shown) [Compound 174] | ≥ 1000 nM |
| COc1cc2nccc(Oc3ccc(NC(=O)c4nn(C5CC5)c(C(C)=O)c4OCC(F)(F)F)nc3)c2cc1OC [Compound 3] | < 500 nM |
| COc1cc2nccc(Oc3ccc(NC(=O)c4cc(C5CC5)cnc4OCC(F)(F)F)nc3)c2cc1OC [Compound 178] | < 500 nM |
| COc1cc2nccc(Oc3ccc(NC(=O)c4nn(C5CCNC5)cc4OCC(F)(F)F)c(F)c3)c2cc1OC (stereo not shown) [Compound 74] | < 500 nM |
| COc1cc2nccc(Oc3ccc(NC(=O)c4nn(C)cc4OCC(F)(F)F)cc3F)c2cc1OC [Compound 50] | < 500 nM |
| COc1cc2nccc(Oc3ccc(NC(=O)c4nn(C5CC5)cc4OCCC(F)(F)F)nn3)c2cc1OC [Compound 173] | < 500 nM |
| COc1cc2nccc(Oc3ccc(NC(=O)c4nn(C5CCCC5)cc4OCC(F)(F)F)cc3F)c2cc1OC [Compound 52] | < 500 nM |
| CCCn1cc(OC(C)C)c(C(=O)Nc2ccc(Oc3ccnc4cc(OC)c(OC(F)(F)F)cc34)c(F)c2)n1 [Compound 35] | ≥ 1000 nM |
| CCCn1cc(OCC(F)(F)F)c(C(=O)Nc2ccc(Oc3ccnc4cc(OC)c(OC)cc34)c(F)c2)n1 [Compound 25] | < 500 nM |
| COc1cc2nccc(Oc3ccc(NC(=O)c4nn(CC(C)C)cc4OCC(F)(F)F)cc3C)c2cc1OC [Compound 58] | < 500 nM |
| COc1cc2nccc(Oc3ccc(NC(=O)c4nn(C)cc4OCC(F)(F)F)cc3C)c2cc1OC [Compound 37] | ≥ 1000 nM |
| CCCn1cc(OCC(F)(F)F)c(C(=O)Nc2ccc(Oc3ccnc4cc(OC)c(OC)cc34)c(C)c2)n1 [Compound 26] | < 500 nM |
| COc1cc2nccc(Oc3ccc(NC(=O)c4nn(CCO)cc4OCC(F)(F)F)cc3F)c2cc1OC [Compound 51] | < 500 nM |
| COc1cc2nccc(Oc3ccc(NC(=O)c4nn(C5CCCC5)cc4OCC(F)(F)F)cc3C)c2cc1OC [Compound 57] | < 500 nM |

Now from value to molecule:

| IC50 | Structure (SMILES) |
| --- | --- |
| < 500 nM | COc1cc2nccc(Oc3ccc(NC(=O)c4nn(CC(C)=O)cc4OCC(F)(F)F)nc3)c2cc1OC [Compound 19] |
| < 500 nM | COCCn1cc(OCC(F)(F)F)c(C(=O)Nc2ccc(Oc3ccnc4cc(OC)c(OC)cc34)cc2)n1 [Compound 61] |
| < 500 nM | COc1cc2nccc(Oc3ccc(NC(=O)c4nn(C5CCCCC5)cc4OCC(F)(F)F)nc3)c2cc1OC [Compound 69] |
| < 500 nM | CCCn1cc(OCC(F)(F)F)c(C(=O)Nc2ccc(Oc3ccnc4cc(OC)c(OC)cc34)cc2C)n1 [Compound 27] |
| < 500 nM | COc1cc2nccc(Oc3ccc(NC(=O)c4nn(CC5CCCCC5)cc4OCC(F)(F)F)nc3)c2cc1OC [Compound 43] |
| < 500 nM | COc1cc2nccc(Oc3ccc(NC(=O)c4nn(CCNC5CC5)cc4OCC(F)(F)F)nc3)c2cc1OC [Compound 168] |
| < 500 nM | COc1cc2nccc(Oc3ccc(NC(=O)c4nn(CCO)cc4OCC(F)(F)F)nc3)c2cc1OC [Compound 67] |
| < 500 nM | CCCn1cc(OCC(F)(F)F)c(C(=O)Nc2ccc(Oc3ccnc4cc(OC)c(OC)cc34)cc2F)n1 [Compound 28] |
| 500 to 1000 nM | COc1cc2nccc(Oc3ccc(NC(=O)c4nn(C)cc4OCC(F)(F)F)c(F)c3)c2cc1OC [Compound 45] |
| < 500 nM | CCCn1cc(OCC(F)(F)F)c(C(=O)Nc2ccc(Oc3ccnc4cc(OC)c(OC)cc34)nn2)n1 [Compound 32] |
| < 500 nM | COc1cc2nccc(Oc3ccc(NC(=O)c4nn(CC(C)(F)F)cc4OCC(F)(F)F)nc3)c2cc1OC [Compound 64] |
| < 500 nM | COc1cc2nccc(Oc3ccc(NC(=O)c4nn(CCO)cc4OCC(F)(F)F)cc3)c2cc1OC [Compound 59] |
| < 500 nM | COc1cc2nccc(Oc3ccc(NC(=O)c4nn(CCCN)cc4OCC(F)(F)F)nc3)c2cc1OC [Compound 68] |
| < 500 nM | COc1cc2nccc(Oc3ccc(NC(=O)c4nn(CC5CCOC5)cc4OCC(F)(F)F)nc3)c2cc1OC (stereo not shown) [Compound 44] |
| < 500 nM | CCCn1cc(NCC(F)(F)F)c(C(=O)Nc2ccc(Oc3ccnc4cc(OC)c(OC)cc34)cn2)n1 [Compound 23] |
| < 500 nM | COc1cc2nccc(Oc3ccc(NC(=O)c4nn(CC5CCC5)cc4OCC(F)(F)F)nc3)c2cc1OC [Compound 42] |
| < 500 nM | COc1cc2nccc(Oc3ccc(NC(=O)c4nn(C(C)C)c(C)c4OCC(F)(F)F)nc3)c2cc1OC [Compound 2] |
| < 500 nM | COc1cc2nccc(Oc3ccc(NC(=O)c4nn(CCN)cc4OCC(F)(F)F)c(F)c3)c2cc1OC [Compound 75] |

| IC50 | Structure (SMILES) |
| --- | --- |
| < 500 nM | COc1cc2nccc(Oc3ccc(NC(=O)c4nn(CC(C)O)cc4OCC(F)(F)F)nc3)c2cc1OC (stereo not shown) [Compound 17] |
| < 500 nM | COc1cc2nccc(Oc3ccc(NC(=O)c4nn(C(C)(C)C)cc4OCC(F)(F)F)nc3)c2cc1OC [Compound 22] |
| < 500 nM | CCCn1cc(OCC(F)(F)F)c(C(=O)Nc2ccc(Oc3ccnc4cc(OC)c(OC)cc34)cc2)n1 [Compound 38] |
| < 500 nM | COc1cc2nccc(Oc3ccc(NC(=O)c4nn(C[C@@H](C)O)cc4OCC(F)(F)F)nc3)c2cc1OC [Compound 29] |
| < 500 nM | COc1cc2nccc(Oc3ccc(NC(=O)c4nn(C5CCCC5)cc4OCC(F)(F)F)nc3)c2cc1OC [Compound 40] |
| < 500 nM | COc1cc2nccc(Oc3ccc(NC(=O)c4nn(CC5CCCC5)cc4OCC(F)(F)F)nc3)c2cc1OC [Compound 71] |
| < 500 nM | CCCCn1cc(OCC(F)(F)F)c(C(=O)Nc2ccc(Oc3ccnc4cc(OC)c(OC)cc34)cn2)n1 [Compound 36] |
| ≥ 1000 nM | COc1cc2nccc(Oc3ccc(NC(=O)c4nn(CC5CNC5)cc4OCC(F)(F)F)nc3)c2cc1OC [Compound 73] |
| < 500 nM | COc1cc2nccc(Oc3ccc(NC(=O)c4nn(CC(C)C)cc4OCC(F)(F)F)nc3)c2cc1OC [Compound 21] |
| < 500 nM | COc1cc2nccc(Oc3ccc(NC(=O)c4nn(CCOC5CCC5)cc4OCC(F)(F)F)nc3)c2cc1OC [Compound 65] |
| < 500 nM | CCn1nc(C(=O)Nc2ccc(Oc3ccnc4cc(OC)c(OC)cc34)cn2)c(OCC(F)(F)F)c1C [Compound 1] |
| < 500 nM | COc1cc2nccc(Oc3ccc(NC(=O)c4nn(CCCO)cc4OCC(F)(F)F)nc3)c2cc1OC [Compound 18] |
| < 500 nM | COc1cc2nccc(Oc3ccc(NC(=O)c4nn(CCO)cc4OCC(F)(F)F)c(F)c3)c2cc1OC [Compound 46] |
| < 500 nM | COc1cc2nccc(Oc3ccc(NC(=O)c4nn(C5CC5)cc4OCCC(F)(F)F)nc3)c2cc1OC [Compound 170] |
| < 500 nM | COCCn1cc(OCC(F)(F)F)c(C(=O)Nc2ccc(Oc3ccnc4cc(OC)c(OC)cc34)cc2F)n1 [Compound 49] |
| < 500 nM | COc1cc2nccc(Oc3ccc(NC(=O)c4nn(CC5CC5)cc4OCC(F)(F)F)nc3)c2cc1OC [Compound 41] |
| < 500 nM | COc1cc2nccc(Oc3ccc(NC(=O)c4nn(C5CCNC5)cc4OCC(F)(F)F)nc3)c2cc1OC (stereo not shown) [Compound 70] |
| < 500 nM | COc1cc2nccc(Oc3ccc(NC(=O)c4nn(C5CCOC5)cc4OCC(F)(F)F)nc3)c2cc1OC (stereo not shown) [Compound 13] |
